Measurements published in US8226989B2, “Anti-adipocyte fatty acid-binding protein (AP2), anti-flap and anti-CySLT1 receptor herbal compositions” (Laila Impex, priority 2008, dated 2012).

Test system: adipocyte fatty acid-binding protein aP2
Assay: aP2 protein expression in LPS induced THP-1 monocyte-macrophage cells (immuno-western blot)
Assay type: cell-based, human
Conditions: THP-1 cells pre-treated 2 h, then LPS; extracts 5 or 10 μg/ml, 5-Loxin 5 μg/ml, montelukast 1 μM, NDGA 10 μM
Procedure: In this experiment, THP-1 human monocyte-macrophage cells were pre-treated with 5 or 10 μg/ml of each ingredient for 2 h and thereafter printed with LPS to induce the inflammatory response. The cellular proteins were extracted by cell lysis buffer and subjected to Immuno-Western blot to detect the modulation of expression of aP2 protein.
The cellular proteins were extracted by cell lysis buffer and subjected to immuno-western blot to detect the modulation of expression of aP2 protein.
Similar experiment was also conducted on Aegle marmelos, Zingiber officinale and G. mangostana extracts.

CC(Cc1ccc(O)c(O)c1)C(C)Cc1ccc(O)c(O)c1 (stereo not shown) [NDGA, Nordihydroguaiaretic Acid]
inhibition of LPS induced aP2 protein expression: significantly reduced
